Measurements reported in PubChem BioAssay AID2060498 (Molecular Pharmacology Branch, DTP, NCI, 2025).
pIC50: −log10 of the molar value.

Tested on: 171881-019-R-J1-PDC tumor spheroids, viability
Experiment: Anticancer human tumor 171881-019-R-J1-PDC patient-derived invasive breast carcinoma cell line growth inhibition [GQUAD]
Conditions: spheroids with HUVEC and MSC; for pIC50: curve of first compound; for viability, T/C: stronger effect = lower value
Summary of the method: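 Viability of tumor cells grown as complex spheroids with endothelial and stromal cells, exposed to drug combinations. Top concentration at or near clinical Cmax (else 10 microM), diluted in half-log increments.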

[1] = second compound 0.0316 µM, first compound 0.0316 µM
[2] = second compound 0.0316 µM, first compound 0.1 µM
[3] = second compound 0.0316 µM, first compound 0.316 µM
[4] = second compound 0.0316 µM, first compound 1 µM
[5] = second compound 0.0316 µM, first compound 3.16 µM
[6] = second compound 0.0316 µM, first compound 10 µM
[7] = second compound 0.1 µM, first compound 0.0316 µM
[8] = second compound 0.1 µM, first compound 0.1 µM
[9] = second compound 0.1 µM, first compound 0.316 µM
[10] = second compound 0.1 µM, first compound 1 µM
[11] = second compound 0.1 µM, first compound 3.16 µM
[12] = second compound 0.1 µM, first compound 10 µM
[13] = second compound 0.316 µM, first compound 0.0316 µM
[14] = second compound 0.316 µM, first compound 0.1 µM
[15] = second compound 0.316 µM, first compound 0.316 µM
[16] = second compound 0.316 µM, first compound 1 µM
[17] = second compound 0.316 µM, first compound 3.16 µM
[18] = second compound 0.316 µM, first compound 10 µM
[19] = second compound 1 µM, first compound 0.0316 µM
[20] = second compound 1 µM, first compound 0.1 µM
[21] = second compound 1 µM, first compound 0.316 µM
[22] = second compound 1 µM, first compound 1 µM
[23] = second compound 1 µM, first compound 3.16 µM
[24] = second compound 1 µM, first compound 10 µM
[25] = second compound 3.16 µM, first compound 0.0316 µM
[26] = second compound 3.16 µM, first compound 0.1 µM
[27] = second compound 3.16 µM, first compound 0.316 µM
[28] = second compound 3.16 µM, first compound 1 µM
[29] = second compound 3.16 µM, first compound 3.16 µM
[30] = second compound 3.16 µM, first compound 10 µM
[31] = second compound 10 µM, first compound 0.0316 µM
[32] = second compound 10 µM, first compound 0.1 µM
[33] = second compound 10 µM, first compound 0.316 µM
[34] = second compound 10 µM, first compound 1 µM
[35] = second compound 10 µM, first compound 3.16 µM
[36] = second compound 10 µM, first compound 10 µM
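For viability, T/C in this document: 100% = DMSO vehicle control viability.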

**Q.** With CC(C)n1c(=O)n(C)c2cnc3cc(F)c(-c4ccc(OCCCN5CCCCC5)nc4)cc3c21 + Cc1[nH]c2ccc(F)cc2c1-c1nc2c3cccnc3c3ncccc3c2[nH]1 as the compound, how does the pIC50 (second compound 0.0316 µM) read?
**A.** Its pIC50 is 5.47.

**Q.** And the pIC50 (second compound 0.1 µM)?
**A.** The pIC50 was 5.47.

**Q.** What about the pIC50 (second compound 0.316 µM) of the same compound?
**A.** The pIC50 was 5.62.

**Q.** What about the pIC50 (second compound 1 µM) of the same compound?
**A.** Its pIC50 is 5.64.

**Q.** What about the pIC50 (second compound 3.16 µM) of the same compound?
**A.** Its pIC50 is greater than 7.50.

**Q.** What about the pIC50 (second compound 10 µM) of the same compound?
**A.** The pIC50 was 6.44.

**Q.** What about the viability, T/C [1] of the same compound?
**A.** The viability, T/C was 103%.

**Q.** What about the viability, T/C [2] of the same compound?
**A.** Its viability, T/C is 94.3%.

**Q.** What about the viability, T/C [3] of the same compound?
**A.** Its viability, T/C is 95.4%.

**Q.** What about the viability, T/C [4] of the same compound?
**A.** The viability, T/C was 84.7%.

**Q.** And the viability, T/C [5]?
**A.** Its viability, T/C is 51.1%.

**Q.** And the viability, T/C [6]?
**A.** Its viability, T/C is 22.8%.

**Q.** What about the viability, T/C [7] of the same compound?
**A.** Its viability, T/C is 97.3%.

**Q.** What about the viability, T/C [8] of the same compound?
**A.** Its viability, T/C is 104%.

**Q.** What about the viability, T/C [9] of the same compound?
**A.** The viability, T/C was 93.4%.

**Q.** What about the viability, T/C [10] of the same compound?
**A.** The viability, T/C was 79.8%.

**Q.** What about the viability, T/C [11] of the same compound?
**A.** Its viability, T/C is 51.7%.

**Q.** What about the viability, T/C [12] of the same compound?
**A.** The viability, T/C was 23.8%.

**Q.** What about the viability, T/C [13] of the same compound?
**A.** Its viability, T/C is 95.9%.

**Q.** What about the viability, T/C [14] of the same compound?
**A.** The viability, T/C was 93.2%.

**Q.** What about the viability, T/C [15] of the same compound?
**A.** The viability, T/C was 64.5%.

**Q.** What about the viability, T/C [16] of the same compound?
**A.** The viability, T/C was 67.8%.

**Q.** What about the viability, T/C [17] of the same compound?
**A.** Its viability, T/C is 50%.

**Q.** What about the viability, T/C [18] of the same compound?
**A.** The viability, T/C was 21.9%.

**Q.** And the viability, T/C [19]?
**A.** Its viability, T/C is 89.7%.

**Q.** What about the viability, T/C [20] of the same compound?
**A.** The viability, T/C was 75.5%.

**Q.** What about the viability, T/C [21] of the same compound?
**A.** The viability, T/C was 84.8%.

**Q.** And the viability, T/C [22]?
**A.** Its viability, T/C is 68%.

**Q.** And the viability, T/C [23]?
**A.** Its viability, T/C is 43.2%.

**Q.** What about the viability, T/C [24] of the same compound?
**A.** Its viability, T/C is 26.9%.

**Q.** And the viability, T/C [25]?
**A.** The viability, T/C was 28.7%.

**Q.** And the viability, T/C [26]?
**A.** Its viability, T/C is 29.2%.

**Q.** What about the viability, T/C [27] of the same compound?
**A.** Its viability, T/C is 23.4%.

**Q.** And the viability, T/C [28]?
**A.** Its viability, T/C is 23.3%.

**Q.** What about the viability, T/C [29] of the same compound?
**A.** The viability, T/C was 19.1%.

**Q.** And the viability, T/C [30]?
**A.** The viability, T/C was 12%.

**Q.** And the viability, T/C [31]?
**A.** The viability, T/C was 65.7%.

**Q.** What about the viability, T/C [32] of the same compound?
**A.** Its viability, T/C is 49.8%.

**Q.** What about the viability, T/C [33] of the same compound?
**A.** Its viability, T/C is 52.4%.

**Q.** What about the viability, T/C [34] of the same compound?
**A.** The viability, T/C was 43.4%.

**Q.** What about the viability, T/C [35] of the same compound?
**A.** Its viability, T/C is 34.3%.

**Q.** What about the viability, T/C [36] of the same compound?
**A.** The viability, T/C was 16.5%.

**Q.** With CC1COCCN1c1cc(-c2ccnn2C)c2ccnc(-c3ccn[nH]3)c2n1 (centres undefined) + Cc1[nH]c2ccc(F)cc2c1-c1nc2c3cccnc3c3ncccc3c2[nH]1 as the compound, how does the pIC50 (second compound 0.0316 µM) read?
**A.** Its pIC50 is 7.19.

**Q.** And the pIC50 (second compound 0.1 µM)?
**A.** The pIC50 was 7.21.

**Q.** And the pIC50 (second compound 0.316 µM)?
**A.** The pIC50 was 7.22.

**Q.** And the pIC50 (second compound 1 µM)?
**A.** The pIC50 was 7.37.

**Q.** And the pIC50 (second compound 3.16 µM)?
**A.** Its pIC50 is greater than 7.50.

**Q.** And the pIC50 (second compound 10 µM)?
**A.** Its pIC50 is greater than 7.50.

**Q.** And the viability, T/C [1]?
**A.** Its viability, T/C is 80%.

**Q.** What about the viability, T/C [2] of the same compound?
**A.** Its viability, T/C is 31.4%.

**Q.** What about the viability, T/C [3] of the same compound?
**A.** The viability, T/C was 14.5%.

**Q.** What about the viability, T/C [4] of the same compound?
**A.** The viability, T/C was 8.57%.

**Q.** And the viability, T/C [5]?
**A.** The viability, T/C was 5.08%.

**Q.** What about the viability, T/C [6] of the same compound?
**A.** Its viability, T/C is 5.43%.

**Q.** And the viability, T/C [7]?
**A.** The viability, T/C was 71.2%.

**Q.** And the viability, T/C [8]?
**A.** The viability, T/C was 35.2%.

**Q.** And the viability, T/C [9]?
**A.** Its viability, T/C is 15.3%.

**Q.** What about the viability, T/C [10] of the same compound?
**A.** The viability, T/C was 8.2%.

**Q.** What about the viability, T/C [11] of the same compound?
**A.** The viability, T/C was 5.64%.

**Q.** What about the viability, T/C [12] of the same compound?
**A.** The viability, T/C was 5.65%.

**Q.** And the viability, T/C [13]?
**A.** Its viability, T/C is 74%.

**Q.** What about the viability, T/C [14] of the same compound?
**A.** Its viability, T/C is 31%.

**Q.** What about the viability, T/C [15] of the same compound?
**A.** The viability, T/C was 16.2%.

**Q.** What about the viability, T/C [16] of the same compound?
**A.** Its viability, T/C is 7.52%.

**Q.** And the viability, T/C [17]?
**A.** Its viability, T/C is 5.84%.

**Q.** What about the viability, T/C [18] of the same compound?
**A.** Its viability, T/C is 5.85%.

**Q.** What about the viability, T/C [19] of the same compound?
**A.** The viability, T/C was 59%.

**Q.** What about the viability, T/C [20] of the same compound?
**A.** The viability, T/C was 24.8%.

**Q.** What about the viability, T/C [21] of the same compound?
**A.** The viability, T/C was 14.6%.

**Q.** What about the viability, T/C [22] of the same compound?
**A.** Its viability, T/C is 9.37%.

**Q.** What about the viability, T/C [23] of the same compound?
**A.** Its viability, T/C is 6.91%.

**Q.** What about the viability, T/C [24] of the same compound?
**A.** The viability, T/C was 6.37%.

**Q.** And the viability, T/C [25]?
**A.** The viability, T/C was 16.6%.

**Q.** And the viability, T/C [26]?
**A.** The viability, T/C was 12.9%.

**Q.** What about the viability, T/C [27] of the same compound?
**A.** Its viability, T/C is 10.5%.

**Q.** And the viability, T/C [28]?
**A.** The viability, T/C was 6.96%.

**Q.** And the viability, T/C [29]?
**A.** The viability, T/C was 5.31%.

**Q.** What about the viability, T/C [30] of the same compound?
**A.** The viability, T/C was 4.34%.

**Q.** And the viability, T/C [31]?
**A.** Its viability, T/C is 18%.

**Q.** What about the viability, T/C [32] of the same compound?
**A.** The viability, T/C was 16.2%.

**Q.** What about the viability, T/C [33] of the same compound?
**A.** The viability, T/C was 11.8%.

**Q.** What about the viability, T/C [34] of the same compound?
**A.** The viability, T/C was 8.67%.

**Q.** What about the viability, T/C [35] of the same compound?
**A.** The viability, T/C was 5.67%.

**Q.** And the viability, T/C [36]?
**A.** The viability, T/C was 5.17%.
